Data on one compound can be found in US20100075957A1, “AMINODIHYDROTHIAZINE DERIVATIVES SUBSTITUTED WITH A CYCLIC GROUP” (SHIONOGI & CO., LTD., priority 2007, published 2010).

The target of this experiment is T1, Recombinant human BACE-1 (Homo sapiens, UniProt P56817).
T1 construct: purchased R&D Systems
Nature of the experiment: Assay of β-secretase-inhibiting activity.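 Note: substrate is a peptide carrying biotin and europium cryptate, after the enzyme reaction, Streptavidin-XL665 is added and incubated 1 h at 30 °C before fluorescence reading.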 The format is biochemical. The following applies: Recombinant human BACE-1 7.4 nM, substrate peptide 18 nM, pH 5.0, 30° C., 3 hours; Table 139; read-out: IC50.

T1 sequence (P56817 46-501): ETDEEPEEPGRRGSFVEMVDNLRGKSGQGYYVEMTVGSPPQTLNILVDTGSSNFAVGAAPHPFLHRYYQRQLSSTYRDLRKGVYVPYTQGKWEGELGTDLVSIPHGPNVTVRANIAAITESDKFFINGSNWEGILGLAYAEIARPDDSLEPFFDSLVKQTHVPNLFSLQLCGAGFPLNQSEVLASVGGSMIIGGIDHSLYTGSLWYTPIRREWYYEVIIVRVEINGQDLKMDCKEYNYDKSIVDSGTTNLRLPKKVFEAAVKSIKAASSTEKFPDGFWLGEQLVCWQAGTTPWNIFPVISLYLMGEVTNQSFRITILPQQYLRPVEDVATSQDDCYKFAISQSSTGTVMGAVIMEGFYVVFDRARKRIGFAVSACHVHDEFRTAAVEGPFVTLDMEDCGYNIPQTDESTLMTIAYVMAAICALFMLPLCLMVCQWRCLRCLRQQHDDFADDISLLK

Take `C[C@@]1(c2cc(NC(=O)COc3ccccc3O)ccc2F)CCSC(N)=N1` [Compound 149]: the IC50 – broadly, the concentration that inhibits the measured activity by half – amounted to 9.25 µM.
